This passage reports viability and Dmax results from patent publication US20220153751A1, “BIFUNCTIONAL COMPOUNDS” (BioTheryX, Inc., priority 2018, published 2022).

Format in all cases: cell-based
One assay concerns MOLM-13 cells. Put plainly: MOLM-13 cell viability assay (CellTiter-Glo). As to conditions: Homo sapiens, MOLM-13, 72 h, 3 days, read-out: MOLM-13 Cell Viability % DMSO at 1 μM. How it is done: MOLM-13 cells were cultured in RPMI 1640 media supplemented with 10% fetal bovine serum, streptomycin and penicillin, and were plated in walled 96-well plates at 2500 cells/well. Cells were incubated in DMSO (control) or the indicated compound for 3 days at 37° C. and 5% CO2. Following the incubation period, 100 μL of CellTiterGlow (CTG) reagent (CellTiter-Glo® Luminescent Cell Viability Assay, Promega (Madison, Wis.)) was added to each well. Following a 10 minutes incubation with shaking, luminescence was measured using the EnVision Multimode plate reader.
The MOLM-13 cell viability values as % DMSO are reported as “A”, “B”, “C”, or “D”. “A” represents a % viability value of less than 50% (value <50%). “B” represents a % viability value of equal to or more than 50% and less than 70% (50%≤value<70%). “C” represents a % viability value of equal to or more than 70% and less than 90% (70%≤value<90%). “D” represents a % viability value of equal or more than 90% (value ≥90%).
(In ATP-based viability assays light output follows the ATP content of the culture.)

In the next assay the target is T1, GSPT1 (Homo sapiens, UniProt P15170+Q96SW2).
T1 construct: Whole cell extracts were prepared using RIPA buffer; endogenous in cells; host or cells: MV-4-11
T1 sequence (P15170 whole entry): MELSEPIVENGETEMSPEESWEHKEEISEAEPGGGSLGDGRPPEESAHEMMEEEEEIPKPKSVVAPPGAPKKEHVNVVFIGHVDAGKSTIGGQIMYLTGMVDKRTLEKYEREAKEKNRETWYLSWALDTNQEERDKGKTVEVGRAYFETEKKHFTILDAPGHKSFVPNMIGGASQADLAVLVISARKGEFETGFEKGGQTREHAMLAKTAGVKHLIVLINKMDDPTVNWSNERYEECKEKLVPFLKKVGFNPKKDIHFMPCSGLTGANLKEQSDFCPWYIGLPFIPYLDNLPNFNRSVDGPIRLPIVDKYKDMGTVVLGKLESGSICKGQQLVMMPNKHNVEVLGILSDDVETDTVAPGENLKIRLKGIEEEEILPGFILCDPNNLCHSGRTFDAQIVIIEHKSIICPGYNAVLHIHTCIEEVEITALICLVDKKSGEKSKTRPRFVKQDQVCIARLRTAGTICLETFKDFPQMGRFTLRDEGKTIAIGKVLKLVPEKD
T1 sequence (Q96SW2 whole entry): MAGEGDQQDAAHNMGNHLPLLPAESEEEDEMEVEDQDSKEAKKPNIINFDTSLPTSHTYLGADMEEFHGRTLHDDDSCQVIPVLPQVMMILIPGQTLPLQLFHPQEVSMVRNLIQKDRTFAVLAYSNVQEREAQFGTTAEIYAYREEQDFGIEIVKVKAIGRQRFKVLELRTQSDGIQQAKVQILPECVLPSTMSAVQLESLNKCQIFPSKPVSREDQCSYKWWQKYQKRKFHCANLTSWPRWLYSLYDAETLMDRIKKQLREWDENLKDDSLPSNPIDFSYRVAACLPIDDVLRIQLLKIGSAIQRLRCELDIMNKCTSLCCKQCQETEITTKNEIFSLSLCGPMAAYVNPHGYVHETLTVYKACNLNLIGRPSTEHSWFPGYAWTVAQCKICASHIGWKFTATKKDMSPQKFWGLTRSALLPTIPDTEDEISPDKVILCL
T1 sequence (Q16531 whole entry partner): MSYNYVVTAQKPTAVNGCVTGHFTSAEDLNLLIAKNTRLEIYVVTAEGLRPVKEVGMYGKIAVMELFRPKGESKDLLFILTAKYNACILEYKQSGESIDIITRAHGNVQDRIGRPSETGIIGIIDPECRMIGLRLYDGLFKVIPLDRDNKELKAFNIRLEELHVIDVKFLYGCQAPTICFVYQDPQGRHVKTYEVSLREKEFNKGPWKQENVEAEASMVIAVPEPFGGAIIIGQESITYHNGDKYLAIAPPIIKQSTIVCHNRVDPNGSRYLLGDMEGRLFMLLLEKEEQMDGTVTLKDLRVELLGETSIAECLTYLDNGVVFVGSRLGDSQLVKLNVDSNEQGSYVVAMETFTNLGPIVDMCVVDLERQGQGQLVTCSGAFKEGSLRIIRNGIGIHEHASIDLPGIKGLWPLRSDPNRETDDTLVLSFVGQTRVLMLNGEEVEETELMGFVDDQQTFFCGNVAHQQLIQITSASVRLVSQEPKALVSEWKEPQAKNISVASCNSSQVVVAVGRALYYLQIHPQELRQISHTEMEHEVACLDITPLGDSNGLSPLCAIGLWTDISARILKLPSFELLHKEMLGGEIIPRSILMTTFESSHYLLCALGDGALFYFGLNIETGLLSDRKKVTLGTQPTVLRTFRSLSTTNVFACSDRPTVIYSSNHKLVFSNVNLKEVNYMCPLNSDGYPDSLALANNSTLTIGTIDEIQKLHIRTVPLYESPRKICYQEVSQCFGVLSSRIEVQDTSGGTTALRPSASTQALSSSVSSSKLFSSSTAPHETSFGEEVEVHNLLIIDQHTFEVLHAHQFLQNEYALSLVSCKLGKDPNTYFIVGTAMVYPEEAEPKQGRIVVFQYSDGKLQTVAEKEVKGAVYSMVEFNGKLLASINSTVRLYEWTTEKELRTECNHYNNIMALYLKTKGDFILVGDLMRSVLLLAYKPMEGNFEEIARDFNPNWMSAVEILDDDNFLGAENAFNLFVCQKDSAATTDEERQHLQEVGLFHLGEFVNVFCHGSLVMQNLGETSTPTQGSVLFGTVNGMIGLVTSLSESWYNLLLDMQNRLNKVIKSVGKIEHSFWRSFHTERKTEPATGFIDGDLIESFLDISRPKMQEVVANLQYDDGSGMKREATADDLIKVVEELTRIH
Put plainly: GSPT1 degradation assay (Western blot, MV-4-11 cells). As to conditions: MV4-11, 6-8 h. How it is done: (§1) MV-4-11 cells were grown in RPMI 1640 media supplemented with 10% fetal bovine serum, streptomycin and penicillin.
(§2) Cells were cultured at approximately 10^6 cells per mL and incubated in DMSO or the indicated compound for 6-8 h. Whole cell extracts were prepared using RIPA buffer according to manufacturer's protocol (Pierce). Briefly, 3×10^6 cells were washed once in PBS, the cell pellets were resuspended in RIPA buffer and allowed to incubate for 15 minutes on ice. Cells debris was removed by centrifugation and the cleared whole cell lysates were transferred to new tubes for further analysis.
(§3) For Western blot analysis, whole cell protein extracts were separated on 4-12% SDS-polyacrylamide gels, transferred to nitrocellulose and probed with the indicated primary antibodies. Membranes were subsequently washed and probed with the appropriate IRDye secondary antibodies (LI-COR). The signal was detected using the Odyssey Imaging System (LI-COR).
(§4) The following antibodies were used in these studies: Anti-eRF3/GSPT1: Abcam, ab126090 (Cambridge, Mass.); Anti-Ikaros: Abcam, ab191394 (Cambridge, Mass.); Anti-CK1α: Abcam, ab108296 (Cambridge, Mass.); Anti-CDK9: Santa Cruz Biotechnology, sc13130 (Dallas, Tex.); Anti-CDK16: Millipore Sigma, HPA001366 (St. Louis, Mo.); 3-actin (8H10comD10) mouse monoclonal antibody: Cell Signaling Technology, #3700 (Danvers, Mass.); IRDye 680RD Goat anti-rabbit antibody: LI-COR, 926-68071 (Lincoln, Nebr.); IRDye 800CW Goat anti-mouse antibody: LI-COR, 926-32210 (Lincoln, Nebr.).
(§5) CDK9 activities are shown in Table 4 at two different concentrations. CDK16 activities are shown in Table 5 at two different concentrations. In each of Tables 1-5, the % degradation values are reported as “A”, “B”, “C”, or “D”. “A” represents a % degradation value of less than 25% (value <25%). “B” represents a % degradation value of equal to or more than 25% and less than 50% (25%≤value<50%). “C” represents a % degradation value of equal to or more than 50% and less than 75% (50%≤value<75%). “D” represents a % degradation value of equal to or more than 75% (value ≥75%).

The next assay has as its target T2, CDK9 (Homo sapiens, UniProt P50750).
T2 construct: Whole cell extracts were prepared using RIPA buffer; endogenous in cells; host or cells: MV-4-11
Put plainly: CDK9 degradation assay (Western blot, MV-4-11 cells). To be noted: 6-8 h; for Dmax at 0.1 µM: MV4-11, 0.1 μM; for Dmax at 1 µM: MV4-11, 1 μM. How it is done:
as §1, §2, §3, §4, §5
A general note: In western blotting, separated proteins are transferred to a membrane and probed.

Another assay has as its target T3, IKAROS (Homo sapiens, UniProt Q13422+Q96SW2).
T3 construct: endogenous in cells; host or cells: MV-4-11
Put plainly: IKAROS degradation assay (Western blot, MV-4-11 cells). As to conditions: MV4-11, 6-8 h. How it is done:
as §1, §2, §3, §4, §5

The target of another assay is T4, CDK16 (Homo sapiens, UniProt Q00536).
T4 construct: Whole cell extracts were prepared using RIPA buffer; endogenous in cells; host or cells: MV-4-11
T4 sequence (Q00536 whole entry): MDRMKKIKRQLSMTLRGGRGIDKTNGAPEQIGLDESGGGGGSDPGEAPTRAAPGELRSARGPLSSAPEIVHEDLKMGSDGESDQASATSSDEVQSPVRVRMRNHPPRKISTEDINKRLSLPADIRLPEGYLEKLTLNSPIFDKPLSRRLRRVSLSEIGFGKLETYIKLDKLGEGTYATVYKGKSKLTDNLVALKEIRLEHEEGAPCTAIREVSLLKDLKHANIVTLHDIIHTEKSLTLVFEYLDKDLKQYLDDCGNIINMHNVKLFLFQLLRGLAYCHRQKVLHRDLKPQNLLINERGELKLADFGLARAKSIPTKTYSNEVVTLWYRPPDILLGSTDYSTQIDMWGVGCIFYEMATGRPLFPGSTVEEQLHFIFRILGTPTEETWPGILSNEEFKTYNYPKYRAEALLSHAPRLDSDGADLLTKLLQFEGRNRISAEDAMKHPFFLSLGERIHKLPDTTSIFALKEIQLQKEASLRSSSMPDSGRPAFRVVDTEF
In words: CDK16 degradation assay (Western blot, MV-4-11 cells). To be noted: 6-8 h; for Dmax at 0.1 µM: MV4-11, 0.1 μM; for Dmax at 1 µM: MV4-11, 1 μM. How it is done: as §1, §2, §3, §4, §5

T3 sequence (Q13422 whole entry): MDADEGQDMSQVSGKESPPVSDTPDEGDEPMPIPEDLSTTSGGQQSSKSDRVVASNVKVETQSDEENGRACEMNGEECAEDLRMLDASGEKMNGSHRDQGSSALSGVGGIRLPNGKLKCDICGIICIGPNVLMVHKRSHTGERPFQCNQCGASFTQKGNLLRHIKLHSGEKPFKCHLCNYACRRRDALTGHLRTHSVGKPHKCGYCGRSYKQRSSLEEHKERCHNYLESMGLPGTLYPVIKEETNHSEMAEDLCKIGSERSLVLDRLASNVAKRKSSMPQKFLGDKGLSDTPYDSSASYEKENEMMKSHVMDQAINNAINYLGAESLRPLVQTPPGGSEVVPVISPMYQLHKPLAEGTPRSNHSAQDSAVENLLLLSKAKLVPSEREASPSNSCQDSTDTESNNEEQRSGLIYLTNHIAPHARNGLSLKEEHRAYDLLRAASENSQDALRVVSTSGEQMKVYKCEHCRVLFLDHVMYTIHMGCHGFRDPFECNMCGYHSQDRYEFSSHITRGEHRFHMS
T3 sequence (Q96SW2 whole entry): as the sequence (Q96SW2 whole entry) above
T3 sequence (Q16531 whole entry partner): as the sequence (Q16531 whole entry partner) above
T2 sequence (P50750 whole entry): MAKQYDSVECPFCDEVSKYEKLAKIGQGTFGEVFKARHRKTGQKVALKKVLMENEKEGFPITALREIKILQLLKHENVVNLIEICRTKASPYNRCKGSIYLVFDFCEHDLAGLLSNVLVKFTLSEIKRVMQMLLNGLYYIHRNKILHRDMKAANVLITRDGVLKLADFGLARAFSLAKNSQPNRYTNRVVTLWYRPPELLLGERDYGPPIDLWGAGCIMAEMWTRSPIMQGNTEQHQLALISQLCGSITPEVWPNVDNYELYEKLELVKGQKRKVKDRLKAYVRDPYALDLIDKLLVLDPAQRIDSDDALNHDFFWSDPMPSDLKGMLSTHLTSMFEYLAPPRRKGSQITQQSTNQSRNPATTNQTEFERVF

Consider `Cn1ncc(-c2nc(NC3CCC(NC(=O)CCCCCCNC(=O)NCc4scc5c4CN(C4CCC(=O)NC4=O)C5=O)CC3)ncc2Cl)c1CC1CC1` (stereo not shown) [Compound 4, 3-[2-({3-[7-(4-{5-Chloro-4-[5-(cyclopropylmethyl)-1-methyl-1H-pyrazol-4-yl]-2-pyrimidinylamino}cyclohexylamino)-7-oxoheptyl]ureido}methyl)-6-oxo-3-thia-7-azabicyclo[3.3.0]octa-1,4-dien-7-yl]-2,6-piperidinedione], for which the viability at 1 µM with MOLM-13 cells was above 90%. On GSPT1, this compound displayed a Dmax at 1 µM of 25 to 50%.

`CC(C)(C)c1cnc(CSc2cnc(NC(=O)C3CCN(CC(=O)NCCCCNCC(=O)NCc4cc5c(s4)C(=O)N(C4CCC(=O)NC4=O)C5)CC3)s2)o1` (stereo not shown) [Compound 14, N-(5-(((5-(tert-butyl)oxazol-2-yl)methyl)thio)thiazol-2-yl)-1-(2-((4-((2-(((5-(2,6-dioxopiperidin-3-yl)-6-oxo-5,6-dihydro-4H-thieno[2,3-c]pyrrol-2-yl)methyl)amino)-2-oxoethyl)amino)butyl)amino)-2-oxoethyl)piperidine-4-carboxamide]: the viability at 1 µM in the assay with MOLM-13 cells was above 90%. Moreover, the Dmax at 0.1 µM on CDK9 was 25 to 50%; on CDK16, below 25%. The Dmax at 1 µM on CDK9 is at least 75%; at IKAROS, below 25%; on GSPT1 it was 25 to 50%; on CDK16, 25 to 50%.

`Cn1ncc(-c2nc(N[C@H]3CC[C@H](NCC(=O)NCCCCNCC(=O)NCc4cc5c(s4)C(=O)N(C4CCC(=O)NC4=O)C5)CC3)ncc2F)c1CC1CC1` (stereo partly shown) [Compound 29, 2-(((1r,4r)-4-((4-(5-(cyclopropylmethyl)-1-methyl-1H-pyrazol-4-yl)-5-fluoropyrimidin-2-yl)amino)cyclohexyl)amino)-N-(4-((2-(((5-(2,6-dioxopiperidin-3-yl)-6-oxo-5,6-dihydro-4H-thieno[2,3-c]pyrrol-2-yl)methyl)amino)-2-oxoethyl)amino)butyl)acetamide]: in the assay with MOLM-13 cells, the viability at 1 µM is above 90%. Besides, the Dmax at 0.1 µM on CDK9 and on CDK16 was 25 to 50% throughout. The Dmax at 1 µM is 50 to 75% at CDK9, 50 to 75% at IKAROS, below 25% at GSPT1 and 50 to 75% on CDK16.

Regarding `Cn1ncc(-c2nc(N[C@H]3CC[C@H](NCC(=O)NCCOCCOCCOCCNc4cccc5c4C(=O)N(C4CCC(=O)NC4=O)C5=O)CC3)ncc2Cl)c1CC1CC1` (stereo partly shown) [Compound 49, 2-(((1r,4r)-4-((5-chloro-4-(5-(cyclopropylmethyl)-1-methyl-1H-pyrazol-4-yl)pyrimidin-2-yl)amino)cyclohexyl)amino)-N-(2-(2-(2-(2-((2-(2,6-dioxopiperidin-3-yl)-1,3-dioxoisoindolin-4-yl)amino)ethoxy)ethoxy)ethoxy)ethyl)acetamide], the viability at 1 µM with MOLM-13 cells is above 90%. The greatest degradation seen (Dmax) at 1 µM at IKAROS was 50 to 75%; on GSPT1, below 25%.

As to `Cn1ncc(-c2nc(N[C@H]3CC[C@H](NCCCCCCCNCc4ccc(OCc5scc6c5CN([C@H]5CCC(=O)NC5=O)C6=O)cc4)CC3)ncc2Cl)c1CC1CC1` [Compound 68, (S)-3-(1-((4-(((7-(((1r,4r)-4-((5-chloro-4-(5-(cyclopropylmethyl)-1-methyl-1H-pyrazol-4-yl)pyrimidin-2-yl)amino)cyclohexyl)amino)heptyl)amino)methyl)phenoxy)methyl)-4-oxo-4H-thieno[3,4-c]pyrrol-5(6H)-yl)piperidine-2,6-dione], the viability at 1 µM in the assay with MOLM-13 cells is above 90%. For the same compound, the Dmax at 1 µM on IKAROS and at GSPT1 was at least 75% each time.

The term viability denotes the share of living cells, or the viability signal relative to a control. By Dmax is commonly meant the largest share of the target that was removed.
